According to patent publication US20220257592A1, “METHODS OF TREATING CANCER” (HOFFMANN-LA ROCHE INC., priority 2019, published 2022):
Marks after values point to notes of the source that are not given here.

Assay: Clinical trial safety, integrated analysis of ALKA, STARTRK-1, STARTRK-2, STARTRK-NG (N=504)
Source text: The following categories of frequency have been used: very common ≥1/10, common (≥1/100 to <1/10), uncommon (≥1/1,000 to <1/100), rare (≥1/10,000 to <1/1000), very rare (<1/10,000).

[1] = patients less than 65 years old

CN1CCN(c2ccc(C(=O)Nc3n[nH]c4ccc(Cc5cc(F)cc(F)c5)cc34)c(NC3CCOCC3)c2)CC1 [Entrectinib, N-[5-(3,5-difluorobenzyl)-1H-indazol-3-yl]-4-(4-methyl-piperazin-1-yl)-2-(tetrahydro-pyran-4-ylamino)-benzamide]
Laboratory: Hyperuricemia, Change from Baseline All Grades (N = 382): 50.8%
Laboratory: Hyperuricemia, Change from Baseline to Grade 3 or 4 (N = 382): 6.8%
Laboratory: Decreased Neutrophils, Change from Baseline All Grades (N = 457): 27.8%
Laboratory: Decreased Neutrophils, Change from Baseline to Grade 3 or 4 (N = 457): 6.3%
Laboratory: Increased AST, Change from Baseline All Grades (N = 478): 43.3%
Laboratory: Increased AST, Change from Baseline to Grade 3 or 4 (N = 478): 3.3%
Laboratory: Increased ALT, Change from Baseline All Grades (N = 479): 38.4%
Laboratory: Increased ALT, Change from Baseline to Grade 3 or 4 (N = 479): 3.1%
Laboratory: Increased Blood Creatinine, Change from Baseline All Grades (N = 480): 94.8%
Laboratory: Increased Blood Creatinine, Change from Baseline to Grade 3 or 4 (N = 480): 3.1%
Laboratory: Decreased Hemoglobin, Change from Baseline All Grades (N = 487): 65.7%
Laboratory: Decreased Hemoglobin, Change from Baseline to Grade 3 or 4 (N = 487): 9.2%
ALT increased, All Grades (N = 504): 16.1%
ALT increased, Frequency Category (All Grades) (N = 504): very common (very common ≥1/10)
ALT increased, Grade ≥3 (N = 504): 3.4%
AST increased, All Grades (N = 504): 17.5%
AST increased, Frequency Category (All Grades) (N = 504): very common (very common ≥1/10)
AST increased, Grade ≥3 (N = 504): 3.6%
Abdominal pain, All Grades (N = 504): 11.1%
Abdominal pain, Frequency Category (All Grades) (N = 504): very common (very common ≥1/10)
Abdominal pain, Grade ≥3 (N = 504): 0.6%
Anemia, All Grades (N = 504): 28.2%
Anemia, Frequency Category (All Grades) (N = 504): very common (very common ≥1/10)
Anemia, Grade ≥3 (N = 504): 9.7%
Arthralgia, All Grades (N = 504): 19.0%
Arthralgia, Frequency Category (All Grades) (N = 504): very common (very common ≥1/10)
Arthralgia, Grade ≥3 (N = 504): 0.6%
Ataxia, Frequency Category (All Grades) (N = 504): very common (very common ≥1/10)
Ataxia, Grade ≥3 (N = 504): 0.8%
Blood creatinine increased, All Grades (N = 504): 25.4%
Blood creatinine increased, Frequency Category (All Grades) (N = 504): very common (very common ≥1/10)
Blood creatinine increased, Grade ≥3 (N = 504): 0.6%
Cognitive Disorders, All Grades (N = 504): 24.2%
Cognitive Disorders, Frequency Category (All Grades) (N = 504): very common (very common ≥1/10)
Cognitive Disorders, Grade ≥3 (N = 504): 4.4%
Congestive Heart Failure, All Grades (N = 504): 3.0%
Congestive Heart Failure, Frequency Category (All Grades) (N = 504): common (common (≥1/100 to <1/10))
Congestive Heart Failure, Grade ≥3 (N = 504): 2.2%
Constipation, All Grades (N = 504): 42.9%
Constipation, Frequency Category (All Grades) (N = 504): very common (very common ≥1/10)
Constipation, Grade ≥3 (N = 504): 0.4%
Cough, All Grades (N = 504): 21.4%
Cough, Frequency Category (All Grades) (N = 504): very common (very common ≥1/10)
Cough, Grade ≥3 (N = 504): 0.6%
Decreased appetite, All Grades (N = 504): 11.9%
Decreased appetite, Frequency Category (All Grades) (N = 504): very common (very common ≥1/10)
Decreased appetite, Grade ≥3 (N = 504): 0.2%
Dehydration, All Grades (N = 504): 7.9%
Dehydration, Frequency Category (All Grades) (N = 504): common (common (≥1/100 to <1/10))
Dehydration, Grade ≥3 (N = 504): 1.0%
Diarrhea, All Grades (N = 504): 33.5%
Diarrhea, Frequency Category (All Grades) (N = 504): very common (very common ≥1/10)
Diarrhea, Grade ≥3 (N = 504): 2.6%
Dizziness, All Grades (N = 504): 39.7%
Dizziness, Frequency Category (All Grades) (N = 504): very common (very common ≥1/10)
Dizziness, Grade ≥3 (N = 504): 1.2%
Dysasthesia, All Grades (N = 504): 29.0%
Dysasthesia, Frequency Category (All Grades) (N = 504): very common (very common ≥1/10)
Dysasthesia, Grade ≥3 (N = 504): 0.2%
Dysgeusia, All Grades (N = 504): 42.3%
Dysgeusia, Frequency Category (All Grades) (N = 504): very common (very common ≥1/10)
Dysgeusia, Grade ≥3 (N = 504): 0.4%
Dysphagia, All Grades (N = 504): 10.1%
Dysphagia, Frequency Category (All Grades) (N = 504): very common (very common ≥1/10)
Dysphagia, Grade ≥3 (N = 504): 0.4%
Dyspnea, All Grades (N = 504): 27.0%
Dyspnea, Frequency Category (All Grades) (N = 504): very common (very common ≥1/10)
Edema, All Grades (N = 504): 37.3%
Edema, Frequency Category (All Grades) (N = 504): very common (very common ≥1/10)
Edema, Grade ≥3 (N = 504): 1.4%
Electrocardiogram QT prolonged, All Grades (N = 504): 2.0%
Electrocardiogram QT prolonged, Grade ≥3 (N = 504): 0.6%
Fatigue, All Grades (N = 504): 45.0%
Fatigue, Frequency Category (All Grades) (N = 504): very common (very common ≥1/10)
Fatigue, Grade ≥3 (N = 504): 5.0%
Fractures, All Grades (N = 504): 6.2%
Fractures, Frequency Category (All Grades) (N = 504): common (common (≥1/100 to <1/10))
Fractures, Grade ≥3 (N = 504): 2.4%
Headache, All Grades (N = 504): 17.5%
Headache, Frequency Category (All Grades) (N = 504): very common (very common ≥1/10)
Headache, Grade ≥3 (N = 504): 1.0%
Hyperuricemia, All Grades (N = 504): 9.1%
Hyperuricemia, Frequency Category (All Grades) (N = 504): common (common (≥1/100 to <1/10))
Hyperuricemia, Grade ≥3 (N = 504): 1.8%
Hypotension, All Grades (N = 504): 16.5%
Hypotension, Frequency Category (All Grades) (N = 504): very common (very common ≥1/10)
Hypotension, Grade ≥3 (N = 504): 2.4%
Lung infection, All Grades (N = 504): 13.1%
Lung infection, Frequency Category (All Grades) (N = 504): very common (very common ≥1/10)
Mood disorders, All Grades (N = 504): 9.1%
Mood disorders, Frequency Category (All Grades) (N = 504): common (common (≥1/100 to <1/10))
Mood disorders, Grade ≥3 (N = 504): 0.6%
Muscular weakness, All Grades (N = 504): 12.3%
Muscular weakness, Frequency Category (All Grades) (N = 504): very common (very common ≥1/10)
Muscular weakness, Grade ≥3 (N = 504): 1.2%
Myalgia, All Grades (N = 504): 19.6%
Myalgia, Frequency Category (All Grades) (N = 504): very common (very common ≥1/10)
Myalgia, Grade ≥3 (N = 504): 0.6%
Nausea, All Grades (N = 504): 32.1%
Nausea, Frequency Category (All Grades) (N = 504): very common (very common ≥1/10)
Nausea, Grade ≥3 (N = 504): 0.8%
Neutropenia, All Grades (N = 504): 11.3%
Neutropenia, Frequency Category (All Grades) (N = 504): very common (very common ≥1/10)
Neutropenia, Grade ≥3 (N = 504): 4.4%
Pain, All Grades (N = 504): 24.4%
Pain, Frequency Category (All Grades) (N = 504): very common (very common ≥1/10)
Pain, Grade ≥3 (N = 504): 1.6%
Peripheral Sensory Neuropathy, Frequency Category (All Grades) (N = 504): very common (very common ≥1/10)
Peripheral sensory neuropathy, All Grades (N = 504): 15.7%
Peripheral sensory neuropathy, Grade ≥3 (N = 504): 1.0%
Pyrexia, All Grades (N = 504): 20.0%
Pyrexia, Frequency Category (All Grades) (N = 504): very common (very common ≥1/10)
Pyrexia, Grade ≥3 (N = 504): 0.8%
Rash, All Grades (N = 504): 11.5%
Rash, Frequency Category (All Grades) (N = 504): very common (very common ≥1/10)
Rash, Grade ≥3 (N = 504): 1.4%
Sleep disturbances, All Grades (N = 504): 13.5%
Sleep disturbances, Frequency Category (All Grades) (N = 504): very common (very common ≥1/10)
Sleep disturbances, Grade ≥3 (N = 504): 0.4%
Syncope, All Grades (N = 504): 4.6%
Syncope, Frequency Category (All Grades) (N = 504): common (common (≥1/100 to <1/10))
Syncope, Grade ≥3 (N = 504): 3.0%
Tumor lysis syndrome, All Grades (N = 504): 0.2%
Tumor lysis syndrome, Frequency Category (All Grades) (N = 504): uncommon (uncommon (≥1/1,000 to <1/100))
Urinary tract infection, All Grades (N = 504): 12.7%
Urinary tract infection, Frequency Category (All Grades) (N = 504): very common (very common ≥1/10)
Urinary tract infection, Grade ≥3 (N = 504): 2.6%
Vision Blurred, Frequency Category (All Grades) (N = 504): very common (very common ≥1/10)
Vision Blurred, Grade ≥3 (N = 504): 0.4%
Vomiting, All Grades (N = 504): 23.2%
Vomiting, Frequency Category (All Grades) (N = 504): very common (very common ≥1/10)
Vomiting, Grade ≥3 (N = 504): 1.2%
Weight increased, All Grades (N = 504): 26.4%
Weight increased, Frequency Category (All Grades) (N = 504): very common (very common ≥1/10)
Weight increased, Grade ≥3 (N = 504): 7.3%
Ataxia, All Grades (N = 504, ataxia, balance disorder, gait disturbances): 15.7%
Vision Blurred, All Grades (N = 504, diplopia, vision blurred, visual impairment): 11.9%
Entrectinib interrupted due to fractures (adult patients): 36.0%
Grade 3 or 4 bone fractures (adult patients): 1.9%
Grade 3 or 4 headache (adult patients): 0.6%
Grade 3 or 4 neutropenia (adult patients): 3.4%
Grade 3 or 4 weight increased (adult patients): 6.9%
Fractures (adult patients (N=475)): 5.3%
Median time to fracture (adults, range: 0.26 months to 18.5 months): 3.42 months
Ataxia (elderly (65 years or older)): 23.8%
Blood creatinine increased (elderly (65 years or older)): 31.5%
Dizziness (elderly (65 years or older)): 48.5%
Hypotension (elderly (65 years or older)): 21.5%
Bilateral femoral neck fractures (human, in vivo): 2 pediatric patients
Cognitive disorders, Grade 3 events (human, in vivo): 4.4%
Cognitive symptoms: amnesia (human, in vivo): 2.8%
Cognitive symptoms: cognitive disorders (human, in vivo): 6.3%
Cognitive symptoms: confusional state (human, in vivo): 7.3%
Cognitive symptoms: delirium (human, in vivo): 0.8%
Cognitive symptoms: disturbance in attention (human, in vivo): 3.8%
Cognitive symptoms: hallucination (human, in vivo): 1.0%
Cognitive symptoms: hallucination visual (human, in vivo): 0.4%
Cognitive symptoms: memory impairment (human, in vivo): 4.2%
Cognitive symptoms: mental disorder (human, in vivo): 0.2%
Cognitive symptoms: mental status changes (human, in vivo): 1.2%
Discontinuation due to fractures (human, in vivo): No patients discontinued
Eye disorders: diplopia (human, in vivo): 2.6%
Eye disorders: vision blurred (human, in vivo): 8.5%
Eye disorders: visual impairment (human, in vivo): 1.6%
Overall safety profile in elderly patients vs patients younger than 65 years (human, in vivo): similar
Patients recovered from ataxia (human, in vivo): 67.1%
Patients recovered from peripheral neuropathy (human, in vivo): 55.7%
Patients recovered from the eye disorder events (human, in vivo): 61.7%
Dyspnea, Grade ≥3 (human, in vivo, 5.5 months): 5.8* %
Lung infection, Grade ≥3 (human, in vivo, 5.5 months): 6.0* %
Tumor lysis syndrome, Grade ≥3 (human, in vivo, 5.5 months): 0.2* %
Ataxia [1]: 12.8%
Blood creatinine increased [1]: 23.3%
Dizziness [1]: 36.6%
Hypotension [1]: 14.7%
QTcF interval of ≥500 ms (patients with at least one post-baseline ECG assessment, 12 patients): 2.8%
QTcF interval prolongation of >60 ms after starting entrectinib (patients with at least one post-baseline ECG assessment, 17 patients): 4.0%
Cognitive disorder events (patients with brain metastases at baseline): 29.7%
Cognitive disorder events (patients without brain metastases): 23.1%
Entrectinib interrupted due to fractures (pediatric patients): 33.3%
Grade 3 or 4 bone fractures (pediatric patients): 12.5%
Grade 3 or 4 headache (pediatric patients): 6.3%
Grade 3 or 4 neutropenia (pediatric patients): 28.1%
Grade 3 or 4 weight increased (pediatric patients): 21.9%
Fractures (pediatric patients (N=29)): 20.7%
Median time to fracture (pediatric patients, range: 1.77 months to 7.39 months): 3.38 months
Disturbance in attention of Grade 1 severity (pediatric population (1/29)): 3.4%
Eye disorders, median duration (range 0.03 months to 14.49 months): 1.02 months
Peripheral sensory neuropathy, median time to onset (range 0.03 months to 20.93 months): 0.49 months
Ataxia, median duration (range: 0.03 months to 11.99 months): 0.66 months
Eye disorders, median time to onset (range: 0.03 months to 21.59 months): 1.87 months
Ataxia, median time to onset (range: 0.03 months to 28.19 months): 0.36 months
Peripheral sensory neuropathy, median duration (range: 0.07 months to 6.01 months): 0.76 months
